Series [1] deals with Staphylococcus aureus. Description: Inhibition of biofilm formation in methicillin-resistant Staphylococcus aureus ATCC 19498 assessed as downregulation of hld gene at MIC incubated for 1 hr by qRT-PCR. Type of series: functional, organism-based.
The test system of series [2] is Staphylococcus aureus. Description: Disruption of membrane integrity in Staphylococcus aureus ATCC 25923 assessed as invagination of cell membrane at MIC incubated for 24 hrs by scanning electron microscopy. It counts as functional, organism-based.
The test system of series [3] is Staphylococcus aureus. Description: Inhibition of biofilm formation in Staphylococcus aureus ATCC 29213 at MIC incubated for 24 hrs by scanning electron microscopy. Type of series: functional, organism-based.
For series [4], the system named is Staphylococcus aureus. In words: Disruption of membrane integrity in methicillin-resistant Staphylococcus aureus ATCC 19498 assessed as decrease in cell volume at MIC incubated for 24 hrs by scanning electron microscopy. Type of series: functional, organism-based.
Series [5] deals with Staphylococcus aureus. Description: Disruption of membrane integrity in methicillin-resistant Staphylococcus aureus ATCC 18466 assessed as perforation of cell membrane at MIC incubated for 24 hrs by scanning electron microscopy. It counts as functional, organism-based.
For series [6], the system named is Staphylococcus aureus. Description: Inhibition of biofilm formation in methicillin-resistant Staphylococcus aureus ATCC 18466 assessed as downregulation of […] gene at MIC incubated for 1 hr by qRT-PCR. Type of series: functional, organism-based. (In general: Real-time PCR tracks product formation cycle by cycle.)
In series [7] the test system is Streptococcus sanguinis. Description: Antibacterial activity against Streptococcus sanguinis ATCC 10556 assessed as reduction in bacterial growth incubated for 24 hrs by serial dilution method. Type of series: functional. As to conditions: ATCC 10556, 24 h, read-out: MIC.
The nature of series [8]: Stability in mouse plasma at 20 uM incubated for 24 hrs by HPLC-MS analysis. Type of series: ADME, cell-free.
Series [9] concerns Staphylococcus aureus. In words: Disruption of membrane integrity in methicillin-resistant Staphylococcus aureus ATCC 19498 assessed as perforation of cell membrane at MIC incubated for 24 hrs by scanning electron microscopy. It counts as functional, organism-based.
In series [10] the test system is Staphylococcus aureus. In words: Disruption of membrane integrity in methicillin-resistant Staphylococcus aureus ATCC 18466 assessed as cell membrane damage at MIC incubated for 24 hrs by scanning electron microscopy. Type of series: functional, organism-based.
The subject of series [11] is Staphylococcus aureus. Description: Antibacterial activity against Staphylococcus aureus ATCC 25923 assessed as reduction in bacterial growth at MIC measured after 15 passages. It counts as functional.
For series [12], the system named is Staphylococcus aureus. Description: Disruption of membrane integrity in Staphylococcus aureus ATCC 29213 assessed as cell membrane damage at MIC incubated for 24 hrs by scanning electron microscopy. It counts as functional, organism-based.
Series [13] in a line: Hemolytic activity in mouse Erythrocyte at 640 ug/ml incubated for 1 hr relative to control. As to conditions: mouse erythrocytes, read-out: %max. It counts as ADME, cell-based.
In series [14] the test system is Staphylococcus aureus. Description: Disruption of membrane integrity in Staphylococcus aureus ATCC 29213 assessed as invagination of cell membrane at MIC incubated for 24 hrs by scanning electron microscopy. It counts as functional, organism-based.
Series [15] deals with Staphylococcus aureus. Description: Disruption of membrane integrity in Staphylococcus aureus ATCC 25923 assessed as cell membrane damage at MIC incubated for 24 hrs by scanning electron microscopy. It counts as functional, organism-based.
Series [16] has as its system Staphylococcus aureus. Description: Inhibition of biofilm formation in methicillin-resistant Staphylococcus aureus ATCC 18466 assessed as downregulation of spa gene at MIC incubated for 1 hr by qRT-PCR. Type of series: functional, organism-based.
For series [17], the system named is Staphylococcus aureus. In words: Disruption of membrane integrity in Staphylococcus aureus ATCC 29213 assessed as decrease in cell volume at MIC incubated for 24 hrs by scanning electron microscopy. It counts as functional, organism-based.
Series [18] deals with Staphylococcus aureus. In words: Inhibition of biofilm formation in Staphylococcus aureus ATCC 29213 assessed as downregulation of spa gene at MIC incubated for 1 hr by qRT-PCR. It counts as functional, organism-based.
Series [19] deals with Staphylococcus aureus. Description: Inhibition of biofilm formation in methicillin-resistant Staphylococcus aureus ATCC 19498 at MIC incubated for 24 hrs by scanning electron microscopy. It counts as functional, organism-based.

Active and inactive are the calls of the source. No cut-off for these calls is given here. Some results are limits rather than exact numbers.

What is called MIC is the least concentration at which growth counts as inhibited. On to H-SYERKINRHFKTLKKNLKKK-NH2, for which the inhibition entry in [1], in [3], in [6], in [16], in [18] and in series [19] was “Active” throughout. Moreover, the outcome in series [2], in series [4], in series [5], in series [9], in [10] and in series [11] was Active. Moreover, the outcome in series [12], in series [14], in series [15] and in series [17] was Active. The minimum inhibitory concentration (MIC) in [7] is < 64 mg/L. Moreover, the Stability entry in series [8] was “Unstable”. Further, in series [13], the hemolysis at 1 h, 640 ug/ml came out at 7.06%.
In the case of H-YIRKIRRFFKKLKKILKK-NH2, the inhibition result in [1], in [3], in series [6], in [16], in series [18] and in series [19] was “Active” each time. The outcome in series [2], in series [4], in series [5], in [9], in [10] and in [11] was Active. Further, the outcome in [12], in series [14], in [15] and in series [17] was Active. Further, in series [7], the minimum inhibitory concentration (MIC) is < 64 mg/L. The Stability entry in series [8] is “Unstable”. Also, the hemolysis at 1 h, 640 ug/ml in [13] was 10.3%.

The record behind these values is ChEMBL document CHEMBL4311960, “Two optimized antimicrobial peptides with therapeutic potential for clinical antibiotic-resistant Staphylococcus aureus” (Eur J Med Chem, 2019).
